Data from patent publication US8652785B2, “Method of screening a modulator of endothelial NO synthase comprising the use of heme binding protein 1” (Sanofi, priority 2008, dated 2014).
Where two headings read alike, the source gives them in different places. One block for each molecule: values may come before it.

Tests used:
[1] = molecular target: T1, Mitogen-activated protein kinase 7 (MAPK7) (Homo sapiens, UniProt Q13164); test: Protein microarray (ProtoArray) binding, MAPK7
T1 construct: purchased Invitrogen, Karlsruhe, Germany ProtoArrays v3.0
T1 sequence (Q13164 whole entry): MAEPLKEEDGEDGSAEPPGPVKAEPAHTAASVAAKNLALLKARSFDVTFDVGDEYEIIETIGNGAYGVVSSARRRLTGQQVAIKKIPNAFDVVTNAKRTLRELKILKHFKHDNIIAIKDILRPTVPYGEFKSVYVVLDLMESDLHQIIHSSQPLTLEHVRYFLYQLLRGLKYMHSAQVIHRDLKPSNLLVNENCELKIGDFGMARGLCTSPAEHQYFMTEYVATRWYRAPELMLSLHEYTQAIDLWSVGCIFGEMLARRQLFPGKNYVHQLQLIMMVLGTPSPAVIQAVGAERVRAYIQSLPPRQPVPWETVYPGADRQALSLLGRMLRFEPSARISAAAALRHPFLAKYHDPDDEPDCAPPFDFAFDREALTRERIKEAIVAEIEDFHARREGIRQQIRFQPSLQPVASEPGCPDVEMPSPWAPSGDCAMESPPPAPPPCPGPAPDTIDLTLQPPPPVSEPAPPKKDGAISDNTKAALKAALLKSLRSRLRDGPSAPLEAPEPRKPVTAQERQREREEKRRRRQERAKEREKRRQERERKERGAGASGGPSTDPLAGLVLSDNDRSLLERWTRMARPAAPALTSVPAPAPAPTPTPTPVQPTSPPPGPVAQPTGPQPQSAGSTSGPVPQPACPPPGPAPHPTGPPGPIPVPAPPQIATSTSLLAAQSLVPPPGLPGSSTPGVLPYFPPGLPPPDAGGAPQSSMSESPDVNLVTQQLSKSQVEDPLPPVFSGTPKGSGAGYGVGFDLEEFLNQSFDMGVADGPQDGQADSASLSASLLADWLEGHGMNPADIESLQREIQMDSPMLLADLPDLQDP
Protocol: (§1) The protein-microarray experiments were carried out using ProtoArrays® v3.0 (Invitrogen, Karlsruhe, Germany). These were nitrocellulose-coated glass plates, on which approx. 5000 recombinant human proteins, in duplicates, were immobilized.
(§2) In the first step the microarrays were incubated for one hour at 4° C. with a MOPS blocking buffer with 0.1% (v/v) Igepal and 1% (w/v) BSA. Then the arrays with the biotin-labeled eNOS transcription enhancers A012 and A013, sometimes in the presence of the unlabeled substance 9257, were incubated at 4° C. for 90 min without shaking, in various test conditions in a MOPS sample buffer with 1% (v/v) Igepal and 1% (w/v) BSA.
(§3) After washing three times, in each case for 1 min, with pure MOPS sample buffer on ice, they were incubated for 30 min with IRDye®680-labeled streptavidin diluted 1/1000 in MOPS sample buffer away from the light, also on ice. IRDye®680- and IRDye®800-labeled secondary antibodies, which recognize the constant Fc-part of the primary antibodies, were used exclusively for the immunodetection of certain proteins. […] The advantage of this wavelength range is the very good signal-to-noise ratio on account of low intrinsic fluorescence. Detection employs the ODYSSEY™ from LI-COR Biosciences (Bad Homburg, Germany). […]
(§4) These labeling (A) and competition tests (B) were evaluated by quantifying the fluorescence signals.

[2] = molecular target: T2, TBP-related Protein 1 (TBPL1) (Homo sapiens, UniProt P62380); test: Protein microarray (ProtoArray) binding, TBPL1
T2 construct: purchased Invitrogen, Karlsruhe, Germany ProtoArrays v3.0
T2 sequence (P62380 1-186): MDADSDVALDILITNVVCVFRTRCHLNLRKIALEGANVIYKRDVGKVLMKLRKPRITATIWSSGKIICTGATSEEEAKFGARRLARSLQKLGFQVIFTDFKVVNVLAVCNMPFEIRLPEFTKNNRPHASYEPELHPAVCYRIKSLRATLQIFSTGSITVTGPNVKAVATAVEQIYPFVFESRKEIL
Protocol: as §1, §2, §3, §4

[3] = molecular target: T3, AMP-activated protein kinase, catalytic subunit alpha 1 (PRKAA1) (Homo sapiens, UniProt Q13131); test: Protein microarray (ProtoArray) binding, PRKAA1
T3 construct: purchased Invitrogen, Karlsruhe, Germany ProtoArrays v3.0
T3 sequence (Q13131 whole entry): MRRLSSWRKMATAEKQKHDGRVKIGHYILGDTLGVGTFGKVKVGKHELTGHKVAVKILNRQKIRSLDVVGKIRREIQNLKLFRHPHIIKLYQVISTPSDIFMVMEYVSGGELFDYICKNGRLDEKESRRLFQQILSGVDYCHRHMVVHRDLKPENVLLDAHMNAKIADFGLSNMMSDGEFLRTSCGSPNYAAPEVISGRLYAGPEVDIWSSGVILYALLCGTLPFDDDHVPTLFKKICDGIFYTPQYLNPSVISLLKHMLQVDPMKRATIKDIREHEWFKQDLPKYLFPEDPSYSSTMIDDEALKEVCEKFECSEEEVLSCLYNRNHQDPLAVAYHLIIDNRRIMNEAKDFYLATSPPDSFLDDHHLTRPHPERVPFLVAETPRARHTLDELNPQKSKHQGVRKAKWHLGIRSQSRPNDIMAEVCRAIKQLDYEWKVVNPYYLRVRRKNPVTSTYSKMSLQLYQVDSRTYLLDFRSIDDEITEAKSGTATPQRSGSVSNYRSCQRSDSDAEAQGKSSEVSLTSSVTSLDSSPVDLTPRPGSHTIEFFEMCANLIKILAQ
Protocol: as §1, §2, §3, §4

[4] = molecular target: T4, Cytidinemonophosphate-N-acetylneuraminic acid-synthetase (CMAS) (Homo sapiens, UniProt Q8NFW8); test: Protein microarray (ProtoArray) binding, CMAS
T4 construct: purchased Invitrogen, Karlsruhe, Germany ProtoArrays v3.0
T4 sequence (Q8NFW8 whole entry): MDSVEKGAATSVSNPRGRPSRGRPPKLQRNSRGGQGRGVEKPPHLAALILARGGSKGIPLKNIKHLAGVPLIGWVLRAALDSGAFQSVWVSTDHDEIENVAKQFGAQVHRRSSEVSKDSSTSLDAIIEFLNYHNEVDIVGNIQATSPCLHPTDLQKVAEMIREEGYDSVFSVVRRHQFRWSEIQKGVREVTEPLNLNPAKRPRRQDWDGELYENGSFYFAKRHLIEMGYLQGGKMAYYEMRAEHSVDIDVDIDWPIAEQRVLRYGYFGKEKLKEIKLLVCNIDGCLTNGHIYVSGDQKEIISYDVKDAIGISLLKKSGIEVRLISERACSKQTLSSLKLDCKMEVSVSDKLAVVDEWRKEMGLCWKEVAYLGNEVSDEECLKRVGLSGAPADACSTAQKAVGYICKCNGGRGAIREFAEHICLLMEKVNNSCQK
Protocol: as §1, §2, §3, §4

[5] = molecular target: T5, Phosphoserine aminotransferase 1 (PSAT1) (Homo sapiens, UniProt Q9Y617); test: Protein microarray (ProtoArray) binding, PSAT1
T5 construct: purchased Invitrogen, Karlsruhe, Germany ProtoArrays v3.0
T5 sequence (Q9Y617 1-370): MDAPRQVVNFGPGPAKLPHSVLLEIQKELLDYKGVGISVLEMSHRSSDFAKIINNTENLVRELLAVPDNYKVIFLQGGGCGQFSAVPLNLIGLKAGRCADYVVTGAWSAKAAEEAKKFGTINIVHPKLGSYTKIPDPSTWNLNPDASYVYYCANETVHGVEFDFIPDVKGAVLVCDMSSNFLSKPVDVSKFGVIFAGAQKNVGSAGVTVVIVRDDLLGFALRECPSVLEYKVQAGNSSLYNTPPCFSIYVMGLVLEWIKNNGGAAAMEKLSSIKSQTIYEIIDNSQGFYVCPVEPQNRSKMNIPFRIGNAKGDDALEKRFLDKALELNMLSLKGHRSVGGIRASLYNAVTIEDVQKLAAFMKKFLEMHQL
Protocol: as §1, §2, §3, §4

eNOS promoter = test: eNOS-transcription test (eNOS-promoter luciferase reporter cell line EA.csr03); format: cell-based; conditions: Homo sapiens; EA.csr03 cells; read-out: Cellular EC50 in the eNOS-transcription test
Protocol: The EA.csr03 cells are cells of a stable eNOS-promoter luciferase cell line. It was obtained by transfection of EA.hy926 cells with a firefly luciferase reporter construct, with a 3.5 kb fragment of the eNOS-promoter added. Cultivation of these cells was carried out with IMDM with GlutaMAX™ I supplemented with 100 U/ml penicillin, 100 μg/ml streptomycin, 10% FCS and 0.4 mg/ml geneticin as selection antibiotic. The EA.hy926 cells are a stable human cell line, which was obtained by fusion of HUVEC with the human […] cell line A549. This cell line is characterized by expression of specific endothelial cell markers, e.g. the “van-Willebrand factor”. The cells used are an original culture of Cora Jean Edgell of passage 32. The cells were cultivated in IMDM with GlutaMAX™ I supplemented with 100 U/ml penicillin, 100 μg/ml streptomycin, HAT Hybri-Max™ medium additive (hypoxanthine, aminopterin and thymidine) and Biotect protective medium.
For transcription test for eNOS promoter activation, 20 000 cells per well of the reporter cell line EA.csr03 were sown in a white 96-well cell culture plate. After 24 hours, various dilutions of the substance in cell culture medium were prepared starting from DMSO stock solutions and were preincubated for 10 min at 37° C. on a water bath. Then these incubation media (100 μl/well) were added to the cells. After incubation for 18 hours, the cells were washed twice with DPBS (100 μl/well) and luciferase lysis buffer (50 μl/well) was added. After 10 min, the solubilized luciferase-substrate luciferin (100 μl/well) was added to the cell lysates. During the luciferase-catalyzed oxidation of luciferin to oxyluciferin there is release of chemiluminescence. […] The light units released were measured in the Genios microplate reader from Tecan Deutschland (Crailsheim, Germany).

[6] = test system: recombinant human proteins on ProtoArrays v3.0; test: Protein microarray (ProtoArray) labeling and competition, qualitative; format: binding; conditions: substance 100 μM
Protocol: as §1, §2
as §3, with “Germany). With this instrument it is possible to detect both emission wavelengths on one membrane simultaneously.” for “Germany).”

[7] = molecular target: T6, Transcription factor EB (TFEB) (Homo sapiens, UniProt P19484); test: Protein microarray (ProtoArray) binding, TFEB
T6 construct: purchased Invitrogen, Karlsruhe, Germany ProtoArrays v3.0
T6 sequence (P19484 1-476): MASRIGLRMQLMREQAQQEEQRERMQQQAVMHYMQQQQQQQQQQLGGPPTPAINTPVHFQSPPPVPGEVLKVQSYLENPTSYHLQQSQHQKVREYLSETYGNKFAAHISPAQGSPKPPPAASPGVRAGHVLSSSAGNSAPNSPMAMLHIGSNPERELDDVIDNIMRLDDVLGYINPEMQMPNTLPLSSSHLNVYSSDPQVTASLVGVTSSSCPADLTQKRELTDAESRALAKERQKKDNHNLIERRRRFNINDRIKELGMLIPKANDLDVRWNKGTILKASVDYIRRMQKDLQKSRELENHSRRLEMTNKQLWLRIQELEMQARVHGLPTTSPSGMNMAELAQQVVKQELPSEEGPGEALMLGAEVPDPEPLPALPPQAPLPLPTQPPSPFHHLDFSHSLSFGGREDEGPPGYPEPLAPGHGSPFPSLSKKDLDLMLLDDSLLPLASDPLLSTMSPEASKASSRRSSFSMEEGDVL
Protocol: as §1, §2, §3, §4

human Hexahis-HEBP1 = molecular target: T7, human Hexahis-HEBP1 (Homo sapiens, UniProt Q9NRV9); test: Binding studies by quenching of tryptophan fluorescence
T7 construct: Hexahis (6xHis) (N); made in house; host or cells: E. coli BL21 Star (DE3)
T7 sequence (Q9NRV9 1-189): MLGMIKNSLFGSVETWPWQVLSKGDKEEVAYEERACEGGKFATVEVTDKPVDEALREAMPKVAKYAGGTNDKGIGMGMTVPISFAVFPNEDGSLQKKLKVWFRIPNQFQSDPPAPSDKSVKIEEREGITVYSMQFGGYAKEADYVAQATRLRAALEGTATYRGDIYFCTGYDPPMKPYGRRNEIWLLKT
From the text: For carrying out binding studies with human HEBP1, it is possible to utilize the intrinsic fluorescence of the tryptophan residues at λ=340 nm, using an excitation wavelength of λ=295 nm. The resultant fluorescence can be “quenched” by binding of porphyrins in spatial proximity to the tryptophan residues. This leads to a decrease of intrinsic fluorescence, which therefore provides a measure for the binding of a ligand. In order to optimize the experimental conditions for these quench measurements it was first necessary to evaluate the spectroscopic properties of the recombinant Hexahis-HEBP1.
Next, studies of the binding of hemin and protoporphyrin IX (PPIX) to human Hexahis-HEBP1 in the presence of eNOS transcription enhancers by tryptophan quenching were carried out. Binding studies with human HEBP1 are carried out using the intrinsic fluorescence of tryptophan residues that are contained. The fluorescence occurring at λ=340 nm after excitation with a wavelength of λ=295 nm can be “quenched” through the binding of porphyrins in proximity to the tryptophan residues. The measured fluorescence decreases as a function of the concentration of the ligands. Using nonlinear regression, it is possible to calculate the binding parameters.
Hemin and PPIX at concentrations from 30 nM to 10 μM were added to a buffered HEBP1 solution (500 nM) and after incubation for 10 min the tryptophan fluorescence was measured (FIG. 3). It was not possible to use higher porphyrin concentrations owing to the low solubility in aqueous systems.
The influence of the eNOS-transcription enhancers on tryptophan quenching by hemin was investigated next. In the experiments the recombinant human HEBP1 at a concentration of 500 nM was preincubated on ice for 30 min with the eNOS-substance 9257 versus DMSO-control in a binding buffer (pH 7.4) of HEPES (20 mM), sodium chloride (100 mM) and DTT (1 mM). Black, 96-well plates were used as the reaction vessel. Then hemin or protoporphyrin IX was added at varying concentrations through addition of the 200-fold concentrated DMSO stock solution and incubated for 10 min at room temperature. Finally, the tryptophan fluorescence was measured after previous optimization at λexc=295 nm and λem=340 nm in the Safire^2 microplate reader (Tecan Deutschland, Crailsheim, Germany).
First we investigated whether substance 9257 can quench the tryptophan fluorescence of HEBP1. […] Therefore the binding of 9257 was investigated indirectly through competition with hemin. For this, HEBP1 (500 nM) was preincubated with 9257 (10 μM) on ice, versus DMSO-control. After 30 min the hemin was added at varying concentrations of 0.1-10 μM and it was incubated at room temperature for a further 10 min before measuring the tryptophan fluorescence (FIG. 4).

[8] = B: A012 (100 μM) in the presence of unlabeled substance 9257 (25 μM)
[9] = 0.5 μM HEBP1, ligand 30 nM to 10 μM, 10 min, read-out: IC50 of tryptophan fluorescence quenching

Molecule: O=C(CCCC[C@@H]1SC[C@@H]2NC(=O)N[C@@H]21)NCCCCCC(=O)NCCOCCOc1ccc(C(=O)N[C@H]2CCCc3ccccc3C2)cc1 [A012]
Fluorescence intensity A ([1]; A: A012 (100 μM)): 4775
Fluorescence intensity B [1, 8]: 1135
Fluorescence intensity A ([2]; A: A012 (100 μM)): 10788
Fluorescence intensity B [2, 8]: 4083
Fluorescence intensity A ([3]; A: A012 (100 μM)): 3791
Fluorescence intensity B [3, 8]: 1206
Fluorescence intensity A ([4]; A: A012 (100 μM)): 10411
Fluorescence intensity B [4, 8]: 5028
Fluorescence intensity A ([5]; A: A012 (100 μM)): 3151
Fluorescence intensity B [5, 8]: 2269
EC50 (eNOS promoter): 1200 nM
labeling of protein duplicates on the microarray [6]: readily discernible
Fluorescence intensity A ([7]; A: A012 (100 μM)): 4987
Fluorescence intensity B [7, 8]: 1333

Molecule: O=C(CCCC[C@@H]1SC[C@@H]2NC(=O)N[C@@H]21)NCCCCCC(=O)NCCOCCOc1ccc(C(=O)N[C@@H]2CCCc3ccccc3C2)cc1 [A013]
EC50 (eNOS promoter): > 10000 nM
labeling of protein duplicates on the microarray [6]: no binding of the substance to the proteins

Further lines, results first:

EC50 (eNOS promoter): 3000 nM
Molecule: O=C(NC1Cc2ccccc2C1)c1ccc(F)cc1 [AVE9488]

IC50 (human Hexahis-HEBP1; [9]): 13000 nM
Molecule: C=CC1=C(C)c2cc3[nH]c(cc4nc(cc5[nH]c(cc1n2)c(C)c5CCC(=O)O)C(CCC(=O)O)=C4C)c(C)c3C=C [PPIX, protoporphyrin IX]

IC50 (human Hexahis-HEBP1; [9]): 3000 nM
IC50 (human Hexahis-HEBP1; HEBP1 500 nM, DMSO-control, hemin 0.1-10 μM, read-out: IC50 of the hemin binding curve, DMSO-control): 1100 nM
potency of hemin relative to PPIX (human Hexahis-HEBP1; from IC50 values): 10 times
Molecule: hemin
